# Laboratory results taken from article PMC4833932, “Cytotoxicity and cell cycle arrest induced by andrographolide lead to programmed cell death of MDA-MB-231 breast cancer cell line” (Journal of Biomedical Science, 2016).
# Where two headings read alike, the source gives them in different places.
# Experiments:
# caspase-3 = test: Caspase activity assay (fluorometric, DEVD-AFC) in MDA-MB-231 cells; format: cell-based, human; conditions: 0-60 μM, 24 h
# Protocol: MDA-MB-231 cells (1 × 10^5 cells per ml) were incubated with different concentrations of andrographolide (0, 15, 30, 45 and 60 μM) for 24 h and then centrifuged to detect caspase-3 and caspase-9 activation using caspase fluoremetric protease assay kit following manufacturer’s instructions. Briefly, cells were lysed in RIPA buffer supplemented with protease inhibitor cocktail and 10 μl lysate were diluted with 10 μl substrate buffer (1:1) containing 100 μM each of fluorogenic substrate, DEVD-AFC and LEHD-AFC for caspase-3 and caspase-9 respectively, and was then incubated for 90 min at 37 °C. Reactions were stopped using 0.2 mM sodium phosphate buffer (pH 7.5) and fluorescence was quantified by a spectrofluorometer (excitation, 405 nm; emission, 505 nm). Experiment was also performed using MCF-7 cells.
# MDA-MB-231 = test: Cellular ROS level (DCF-DA); format: cell-based, human; conditions: 15, 30, 45 and 60 μM, 12-48 h
# Protocol: To estimate intracellular ROS level, MDA-MB-231 (2 × 10^4 cells per well) were treated with andrographolide (15, 30, 45 and 60 μM) for 12–48 h and were harvested by centrifugation for the assay. The cell suspension (200 μl, containing 1 × 10^5 cells per ml) was mixed to PBS (800 μl) and 10 μM 2ʹ, 7ʹ-dichlorofluorescein diacetate (DCF-DA) and kept at 37 °C for 30 min in the dark. 25 μM H2O2 was used for positive control. The intracellular ROS level was measured by determining the production of H2O2 using a spectrofluorometer (excitation, 488 nm; emission, 515 nm). Another set of experiment was similarly performed where MDA-MB-231 cells were pre-treated with 3 mM NAC for 1 h followed by without or with andrographolide (30 μM) treatment. Same experiment was also performed using MCF-7 cells.
# caspase-7 = test: Caspase activity assay in MCF-7 cells; format: cell-based, human; conditions: MCF-7, 0-80 μM, 24 h
# T-47D = test: In vitro cytotoxicity (MTT) assay; format: cell-based; conditions: Homo sapiens, T47D
# Protocol: (§1) The effect of andrographolide on cell viability was measured by MTT assay following the method by Mosmann. Briefly, the cells (1 × 10^5 cells per ml) were seeded in a 96 well micro titer plate (100 μl per well) with replications. Treatment was conducted for 24 and 48 h with different concentrations (0, 5, 7.5, 15, 30, 45, 60, 75 and 100 μM) of andrographolide. After incubation, 20 μl of 5 mg/ml MTT stock solution was added to each well and incubated for 4 h at 37 °C. The obtained formazan crystals were solubilized with DMSO and the absorbance was measured at 570 nm using a microplate reader (SpectraMax M5, Molecular Devices, USA). Cell viability (%) has been shown as a ratio of absorbance (A570) in treated cells to absorbance in control cells (0.1 % DMSO) (A570). The IC50 was calculated as the concentration of sample needed to reduce 50 % of the absorbance in comparison to the DMSO-treated control. Percent cell viability was calculated following the equation: Cellviability%=A570Sample/A570ControlDMSO×100
# [1] = system: MCF-10A normal human breast epithelial immortalized cell line; test: In vitro cytotoxicity (MTT) assay; format: cell-based; conditions: for IC50: Homo sapiens, MCF-10A, MTT
# Protocol: as §1
# MCF-7 = test: In vitro cytotoxicity (MTT) assay; format: cell-based; conditions: Homo sapiens
# Protocol: as §1
# [2] = In vivo pharmacokinetic study, plasma LC-MS/MS; parameters: species or system Female BALB/c mice; conditions: for Plasma exposure at 24 h: LLOQ 2.44 ng/ml; for bioavailability: PO 50 mg/kg vs IV 5 mg/kg; for half-life: read-out: Terminal T½ (converted); for AUC(0-t): read-out: AUC(0-8)
# Protocol: Female BALB/c mice, being divided into two groups (n = 6 per group), received andrographolide via oral route (PO) as well as intravenous (IV) bolus dosing at 50 mg/kg (equivalent to 142.73 μmol/kg and dose volume, 10 ml/kg) and 5 mg/kg body weight (equivalent to 14.27 μmol/kg and dose volume, 5 ml/kg) respectively. The formulation was prepared in 10 % DMSO, 10 % Cremophor and 80 % 1/15 (M) Na2HPO4 with dose volume of 10 ml/kg and 5 ml/kg for oral and IV respectively. ~50 μl of blood samples were collected at each time points (0.25, 0.5, 1, 2, 4, 8 and 24 h for PO and 0.08, 0.25, 0.5, 1, 2, 4, 8 and 24 h for IV) into heparinized capillary tubes by piercing the saphenous vein using a disposable needle (26 G). Blood samples were centrifuged at 3000 rpm for 10 min at 4 °C. The resulting plasma samples were stored at –80 °C until bioanalysis.
# Analysis of plasma samples were performed using a liquid chromatography tandem mass spectroscopy (API-4000, AB Sciex Instruments, Foster City, CA) attached with the ESI source. The LC system consisted of LC-20ADvp pump (Shimadzu, Kyoto, Japan) and CTC PAL (HTS) autosampler. Liquid chromatography was performed using a Luna C18 column (2 × 30 mm, 5 μ particle) of Phenomenex (Torrance, CA) and the mobile phase consisted of 2 mM ammonium acetate in water (A) and 80: 20 (v/v) MeCN: Solvent A (B). The gradient elution program was as follows: first 60 s only A for washing, then 60 s for gradient up to 100 % B and it was continued for next 60 s. Total run time was 3.5 min with a flow of 0.8 ml/min at room temperature. Samples were detected and quantified using Analyst 1.4.2. Internal standard used was diclofenac.
# The concentrations of test samples were determined from the standard curve prepared by spiking 2 μl of working stock in 98 μl of blank plasma along with the quality control samples (low, mid and high). The linear equation of the standard curve was obtained by regressional analysis of the peak area ratio of analyte to internal standard versus nominal concentration with a weighting factor of 1/X2. The calibration curve was linear in the concentration range 2.44 (LLOQ) to 1250 ng/ml.
# [3] = female, BALB/c, mouse, plasma, iv, 5 mg/kg, IV at 5 mg/kg, female BALB/c mice
# [4] = female, BALB/c, mouse, plasma, po, 50 mg/kg, PO at 50 mg/kg, female BALB/c mice
# [5] = mouse, plasma, IV at 5 mg/kg, female BALB/c mice
# [6] = mouse, plasma, PO at 50 mg/kg, female BALB/c mice
smiles,measurement,setting,value
C=C1CC[C@@H]2[C@](C)(CO)[C@H](O)CC[C@@]2(C)[C@@H]1C/C=C1/C(=O)OC[C@H]1O [andrographolide],activation of caspase-3,caspase-3,gradual dose-dependent activation
same,ROS generation (DCF fluorescence),MDA-MB-231,increasing ROS generation with longer exposure and elevated dose
same,caspase-7 (effector caspase) activation,caspase-7,activation in a dose-dependent manner
same,IC50,T-47D; 24 h,118 µM
same,IC50,T-47D; 48 h,72.6 µM
same,IC50 at 48 h for MCF-10A higher than that for MDA-MB-231 cells,"[1]; 48 h, MCF-10A vs MDA-MB-231",~3.5 fold
same,IC50,[1]; 24 h,138 µM
same,IC50,[1]; 48 h,106 µM
same,"treatment did not affect normal breast epithelial cells, MCF-10A","[1]; abstract, quantity not named (presumably viability)",> 80%
same,IC50,"MCF-7; MCF7, MCF-7, 24 h",61.1 µM
same,IC50,"MCF-7; MCF7, MCF-7, 48 h",36.9 µM
same,Plasma exposure at 24 h,"[2]; IV arm, 5 mg/kg",below lower limit of quantitation
same,bioavailability,[2]; female BALB/c mice,9.27 ± 1.69%
same,Plasma exposure at 24 h,"[2]; PO arm, 50 mg/kg",below lower limit of quantitation
same,CL,"[2]; PO at 50 mg/kg, female BALB/c mice",1045 ± 201.7 mL/min/kg
same,AUC(0-inf),[2]; [3],2.51 ± 0.56 µM·h
same,clearance,[2]; [3],91.8 mL/min/kg
same,half-life,[2]; [3],1.86 ± 0.21 h
same,bioavailability,"[2]; female, BALB/c, mouse, plasma, oral, 50 mg/kg, female BALB/c mice, read-out: Bioavailability",< 10%
same,AUC(0-inf),[2]; [4],2.33 ± 0.42 µM·h
same,half-life,[2]; [4],3.3 ± 0.35 h
same,C0,[2]; [5],14.6 ± 4.04 µM
same,AUC(0-t),[2]; [5],1.96 ± 0.38 µM·h
same,Cmax,[2]; [6],0.73 ± 0.17 µM
same,Tmax,[2]; [6],0.42 ± 0.14 h
same,AUC(0-t),[2]; [6],1.92 ± 0.36 µM·h
